From patent US9783547B2, “Water soluble 4-azapodophyllotoxin analogs” (CENTRE NATIONAL DE LA RECHERCHE SCIENTIFIQUE (CNRS), priority 2014, dated 2017)
“Also recorded” adds a separate entry of the source.

How the values were obtained:
tubulin = assay: Tubulin polymerization inhibition assay (DAPI fluorescence); type: biochemical; conditions: tubulin 1 mg/ml, DAPI; read-out: IPT (inhibition of tubulin polymerization) IC50
Excerpt: Fluorescence was then read at the excitation wavelength of 360 nm and emission of 450 nm.

Lewis lung carcinoma = assay: Antitumor activity in Lewis lung carcinoma bearing mice; conditions: for Drug death: deaths/animals; for Tumor Log10 cell kill: [(T − C)/3.32] × Td, Td 2.2 days
Method: Animal body weights included the tumor weights.
The percent T/C value is calculated as follows:

U87 = assay: Cytotoxicity assay for human cancer cells (MTS); type: cell-based; conditions: U-87 MG, U87 brain glioblastoma, astrocytoma, 72 h, read-out: IC 50 value
Method: (§1) Human cells were grown in DMEM medium supplemented with 10% fetal calf serum (Invitrogen), in the presence of penicillin, streptomycin and amphotericin B (Fungizone) in 75 cm^2 flask under 5% CO2. Cells were plated in 96-well tissue culture microplates at a density of 650 cells/well in 200 μl medium and treated 24 h later with the compound dissolved in DMSO at concentrations ranging from 0.5-10 μM applied using an automated benchstation (Beckman Biomek 3000). Controls received the same volume of DMSO as the test wells (1% final concentration). After a 72 h exposure time, MTS reagent (Promega) was added and incubated for 3 h at 37° C. and the absorbance was read at 490 nm. Results are expressed as the inhibition of cell proliferation calculated as the ratio [(OD490 treated/OD490 control)×100].

MDA231 = assay: Cytotoxicity assay for human cancer cells (MTS); type: cell-based; conditions: MDA-MB-231, MDA231 breast ER− (hormone independent), 72 h, read-out: IC 50 value
Method: as §1

HL60R = assay: Cytotoxicity assay for human cancer cells (MTS); type: cell-based; conditions: HL60R acute promyelocytic leukemia-multidrug resistant, 72 h, read-out: IC 50 value
Method: as §1

KB = assay: Cytotoxicity assay for human cancer cells (MTS); type: cell-based; conditions: KB epidermoid carcinoma, 72 h, read-out: IC 50 value
Method: as §1

[1] = system: Eahy 926 endothelial cells (preformed cords on Matrigel); assay: Endothelial cell cords disruption assay; type: cell-based, human; conditions: 2 hour exposure
Method: Eahy 926 endothelial cells were seeded onto a Matrigel layer in 6 well plates and allowed to form microvascular structures for 48 h (cords). […] In this experiment the control solvent used was 1% DMSO final concentration, because this solvent was required to solubilize combretastatin A4 used as a positive internal control. Digital photographs of the same plate region were taken before drug application and two hours after.
Another typical effect of antivascular agents is the disruption of preformed cords of endothelial cells grown on a Matrigel layer.

human cancer cell lines = assay: Cytotoxicity on the whole panel of human cancer cell lines (MTS); type: cell-based; conditions: all human cancer cell lines of Table 2; read-out: IC50 values, range over all cell lines
colon 26 carcinoma = assay: Antitumor activity in colon 26 carcinoma bearing mice; conditions: for Tumor Log10 cell kill: [(T − C)/3.32] × Td, Td 2 days
[2] = 50 mg/kg i.p. days 4-8 and 11-15
[3] = 55 mg/kg i.p. days 4-8 and 11-15
[4] = 55 mg/kg i.p. days 4-8 and 11-15, hydrochloride
[5] = 31 mg/kg i.p. days 4, 5, 11, 12, 14, 15
[6] = 50 mg/kg i.p. days 4, 5, 11, 12, 14, 15

SMILES: COc1cc(Nc2c3c(nc4cc5c(cc24)OCO5)CCCC3=O)cc(OC)c1OC.Cl [SGR307.HCl, 6,7-(Methylenedioxy)-9-(3,4,5-trimethoxyphenylamino)-3,4-dihydroacridin-1(2H)-one, hydrochloride]
- IC50 (tubulin): 1.09 µM
- T − C (day), tumor growth delay (Lewis lung carcinoma; [2]): 4.5 days
- Time for median tumor to reach 500 mm^3 (Lewis lung carcinoma; [2]): 14.1 days
- T/C day 18 (%) (Lewis lung carcinoma; [2]): 36.2%
- Mean tumor volume (mm^3) on day 18 (range) (Lewis lung carcinoma; 50 mg/kg i.p. days 4-8 and 11-15, range 297-2230): 1158 mm^3
- Drug death (Lewis lung carcinoma; [2]): 0/5
- Note (activity / toxicity assessment) (Lewis lung carcinoma; 50 mg/kg i.p. days 4-8 and 11-15, hydrochloride): not toxic; also recorded: highly active
- Mean body wt change [g/mouse (day of nadir)] (Lewis lung carcinoma; 50 mg/kg i.p. days 4-8 and 11-15, nadir d6): −0.5 (d6) g/mouse
- Tumor Log10 cell kill (Lewis lung carcinoma; 50 mg/kg i.p., hydrochloride): 3
- Time for median tumor to reach 500 mm^3 (Lewis lung carcinoma; [3]): 17.4 days
- T/C day 18 (%) (Lewis lung carcinoma; [3]): 19.3%
- Mean tumor volume (mm^3) on day 18 (range) (Lewis lung carcinoma; 55 mg/kg i.p. days 4-8 and 11-15, range 457-806): 619 mm^3
- Drug death (Lewis lung carcinoma; [3]): 0/5
- Note (activity / toxicity assessment) (Lewis lung carcinoma; [4]): not toxic; also recorded: highly active
- T − C (day), tumor growth delay (Lewis lung carcinoma; [4]): 7.8 days
- Mean body wt change [g/mouse (day of nadir)] (Lewis lung carcinoma; 55 mg/kg i.p. days 4-8 and 11-15, nadir d8): −2.4 (d8) g/mouse
- Tumor Log10 cell kill (Lewis lung carcinoma; 55 mg/kg i.p.): 5.2
- IC50 (U87): 0.126 µM
- IC50 (MDA231): 0.079 µM
- IC50 (HL60R): 0.164 µM
- IC50 (KB): 0.111 µM
- Lowest concentration at which destruction of endothelial cords is observed [1]: 0.5 µM
- IC50 (human cancer cell lines): 0.03 to 0.38 µM
- T − C (day), tumor growth delay (colon 26 carcinoma; [5]): 7.7 days
- Time for median tumor to reach 750 mg (colon 26 carcinoma; [5]): 21.2 days
- % T/C day 15 (colon 26 carcinoma; [5]): 15.4%
- Mean tumor vol (mm^3) day 15 (colon 26 carcinoma; [5]): 168 mm^3
- Mean body wt change [g/mouse (day of nadir)] (colon 26 carcinoma; 31 mg/kg i.p. days 4, 5, 11, 12, 14, 15, nadir d6): −0.7 g/mouse
- Tumor Log10 cell kill (colon 26 carcinoma; 31 mg/kg i.p.): 4.6
- T − C (day), tumor growth delay (colon 26 carcinoma; [6]): 13.7 days
- Time for median tumor to reach 750 mg (colon 26 carcinoma; [6]): 27.2 days
- % T/C day 15 (colon 26 carcinoma; [6]): 2.8%
- Mean tumor vol (mm^3) day 15 (colon 26 carcinoma; [6]): 31 mm^3
- Mean body wt change [g/mouse (day of nadir)] (colon 26 carcinoma; 50 mg/kg i.p. days 4, 5, 11, 12, 14, 15, nadir d7): −2.6 g/mouse
- Tumor Log10 cell kill (colon 26 carcinoma; 50 mg/kg i.p.): 8.3
- Body weight loss (colon 26 carcinoma; 80 mg/kg i.p. days 4, 5, 11, 12, 14, 15): > 20%
- Mean body wt change [g/mouse (day of nadir)] (colon 26 carcinoma; 80.6 mg/kg i.p. days 4, 5, 11, 12, 14, 15, nadir d14): −5.4 g/mouse
